Data published in EP4685142A1, “TRIAZINE COMPOUND AND USE THEREOF” (Chengdu Zenitar Biomedical Technology Co., Ltd., priority 2023, dated 2024).
Where two headings read alike, the source gives them in different places.

Legend:
[1] = biological target: T1, hERG potassium ion channel (Homo sapiens, UniProt Q12809)
Protocol: (§1) Inhibition experiment of compounds on hERG potassium ion channel
(§2) Cell culture and treatment: CHO cells stably expressing hERG were cultured in cell culture flasks and incubated in a 5% CO2 incubator at 37°C. When a cell density reached 60%-80%, the cell culture medium was aspirated, washed once with PBS, and then digested with Detachin. After digestion, the grown cells were neutralized in the cell culture medium, and then centrifuged, the supernatant was aspirated, the cell culture medium was added again to resuspend the grown cells, and the cell density was adjusted to 2-5×10^6 cells/mL for later use.
(§3) Compound preparation: the compound stock solution was diluted in 100% DMSO, that is, 10 µL compound stock solution was serially diluted in 20 µL DMSO by 3 folds to obtain six concentrations. Six concentrations of the compound (4 µL for each concentration) were diluted in 396 µL extracellular fluid by 100 folds to obtain six intermediate concentrations. Six intermediate concentrations of the compound (80 µL for each concentration) were diluted in 320 µL extracellular fluid by 5 folds to obtain final concentrations to be tested. […] DMSO in a final test concentration was not more than 0.2%, and DMSO at this concentration had no effect on the hERG potassium channel. The entire dilution process for compound preparation was performed using Bravo instrument.
(§4) Electrophysiological recording process: the processes of single-celled high-impedance sealing and whole-cell mode formation were all automatically completed by Qpatch instrument, under the whole-cell recording mode, the cells were clamped at -80 mV, before 5-second + 40 mV depolarization stimulus, the cells were given 50-millisecond - 50 mV pre-voltage, followed by repolarization to -50 mV for 5 seconds, and then returning to -80 mV. The voltage stimulus was given every 15 seconds, after 2 minutes of recording, extracellular fluid was recorded for 5 min, and then a drug was administrated, started from a lowest test concentration, each test concentration of the compound was given for 2.5 minutes, after all concentrations were given consecutively, a positive control compound Cisapride (3 µM) was given. At least 3 cells were tested for each concentration (n≥3).
(§5) Data processing: data analysis and processing were performed using GraphPad Prism 5.0 and Excel software. IC50 values of the compounds were calculated by fitting with the following equation using GraphPad Prism 5 software: Y = Bottom + (Top−Bottom)/(1+10^(∧)((LogIC50−X)*HillSlope)); [formula] where X is the Log value of the test sample concentration, Y is an inhibition percentage at a corresponding concentration, and Bottom and Top are the minimum and maximum inhibition percentages, respectively.

LPS-induced mice = experiment: LPS-induced mouse model, survival; type: in vivo, Balb/c mice; settings: for 72h Survival rate: 25 mg/kg oral, 1 h before 10 mg/kg LPS i.p.; for survival status of mice (mice alive) 12h / survival status of mice (mice alive) 24h / survival status of mice (mice alive) 36h / survival status of mice (mice alive) 48h / survival status of mice (mice alive) 72h: 25 mg/kg
[2] = In vivo brain-to-plasma ratio in mice; settings: for Plasma: male mice, oral 10 mg/kg
Protocol: Evaluation of in vivo brain-to-plasma ratio of compound
Experimental purpose: to obtain the brain-to-plasma ratio of the compound
Experimental protocol: the brain-to-plasma ratio of the compound was investigated by monitoring the content of the compound in mouse brain and plasma.
Experimental procedure: the compound was weighed, followed by adding a small amount of DMSO and adding a sodium chloride solution for injection, to prepare a 10 mg · mL^-1 compound solution for administration. Male mice were orally administered at 10 mg · kg^-1, and whole plasma and whole brain tissue were sampled at 1 h and 6 h after administration (n=3). […] A centrifuge tube was weighed as M1, the centrifuge tube containing the whole brain tissue was weighed as M2, the centrifuge tube containing water for homogenization was weighed as M3, and the centrifuge tube after the removal of 30 µL homogenate was weighed as M4.
Standard curve range: 10-10,000 ng·mL^-1. Content of drug in brain = measured value × 0.03 × (M3−M1)/[(M2−M1)×(M3−M4)].

[3] = biological target: T1, hERG potassium ion channel; experiment: Inhibition of hERG potassium ion channel (CHO cells stably expressing hERG, Qpatch)
Protocol: as §1, §2, §3, §4, §5

NLRP3 inflammasome = biological target: T2, NLRP3 inflammasome (Homo sapiens, UniProt Q96P20); experiment: Inhibitory activity of NLRP3 inflammasome in human monocytes (THP-1 cells, LPS + Nigericin, IL-1β ELISA); type: cell-based
T2 construct: host or cells: THP-1 cells
T2 sequence (Q96P20 whole entry): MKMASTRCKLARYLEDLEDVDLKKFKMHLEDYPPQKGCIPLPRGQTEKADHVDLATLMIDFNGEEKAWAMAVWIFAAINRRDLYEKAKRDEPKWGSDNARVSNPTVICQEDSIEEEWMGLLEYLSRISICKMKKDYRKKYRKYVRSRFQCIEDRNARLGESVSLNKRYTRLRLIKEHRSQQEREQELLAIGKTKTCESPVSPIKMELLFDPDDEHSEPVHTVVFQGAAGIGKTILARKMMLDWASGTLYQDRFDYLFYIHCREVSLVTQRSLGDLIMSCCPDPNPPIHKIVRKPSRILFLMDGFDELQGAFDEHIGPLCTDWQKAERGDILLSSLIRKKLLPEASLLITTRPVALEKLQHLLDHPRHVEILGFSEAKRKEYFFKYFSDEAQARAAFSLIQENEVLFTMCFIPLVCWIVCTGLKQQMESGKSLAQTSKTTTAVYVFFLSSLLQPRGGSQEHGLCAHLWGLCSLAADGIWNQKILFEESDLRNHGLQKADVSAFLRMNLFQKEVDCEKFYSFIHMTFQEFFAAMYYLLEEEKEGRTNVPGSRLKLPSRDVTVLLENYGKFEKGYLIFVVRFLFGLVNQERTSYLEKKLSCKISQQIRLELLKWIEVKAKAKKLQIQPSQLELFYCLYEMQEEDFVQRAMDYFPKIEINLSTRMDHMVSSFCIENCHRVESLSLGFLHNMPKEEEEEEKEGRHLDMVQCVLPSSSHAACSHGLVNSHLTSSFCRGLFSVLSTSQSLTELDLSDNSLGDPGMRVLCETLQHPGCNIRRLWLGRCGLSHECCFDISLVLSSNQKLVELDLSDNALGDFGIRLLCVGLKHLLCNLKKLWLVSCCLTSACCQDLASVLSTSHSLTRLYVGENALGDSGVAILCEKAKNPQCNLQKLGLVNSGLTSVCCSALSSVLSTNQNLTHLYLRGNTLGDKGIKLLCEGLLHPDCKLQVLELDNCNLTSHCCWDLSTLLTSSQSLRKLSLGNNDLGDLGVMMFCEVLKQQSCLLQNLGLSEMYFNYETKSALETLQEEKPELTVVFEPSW
Protocol: 1. Determination of inhibitory activity of NLRP3 inflammasome in human monocytes
Experimental method: THP-1 cells were cultured in RPMI culture medium containing PMA (10 µM), and then inoculated in 48-well plates at a density of 2×10^5 cells/mL, the plates were incubated overnight in a 5% CO2 incubator at 37°C. The next day, the above culture medium was replaced with Opti-MEM culture medium containing 1 µg/mL LPS. After 3 hours, the grown cells were simulated for 40 min with a drug, and then simulated for 40 min with Nigericin (10 µM), and a cell supernatant was harvested for ELISA analysis.
Table 2 Inhibitory activity of NLRP3 inflammasome

[4] = Pharmacokinetic evaluation in Balb/c mice; type: in vivo; settings: mouse, in vivo, 5 mg/kg
Text: 4. Pharmacokinetic evaluation of compounds in Balb/c mice
Experimental purpose: to understand pharmacokinetic properties of the compounds.
Experimental basis: Technical Guidelines for Nonclinical Pharmacokinetic Studies of Chemical Drugs, 2014.
Experimental protocol: the pharmacokinetic properties of the compounds were investigated via intravenous administration and intragastric administration in Balb/c mice.
The blood drug concentration was quantitatively analyzed by LC-MS/MS, and pharmacokinetic parameters were calculated, such as peak concentration (Cmax), area under the concentration-time curve (AUC(0-t)), half-life (T1/2), clearance (CL), volume of distribution at steady state (Vdss), and bioavailability (F).
The results of pharmacokinetic evaluation are shown in Table 5 below: Table 5 Pharmacokinetic test results of compounds in Balb/c mice

[5] = In vivo distribution of cerebrospinal fluid and plasma; settings: for Cerebrospinal fluid / Plasma: intravenous 5 mg/kg, n=1; for concentration at 0.25 h / concentration at 2 h: male, iv, 5 mg/kg
Protocol: Evaluation of in vivo distribution of cerebrospinal fluid and plasma after compound administration
Experimental procedure: the compound was weighed, followed by adding a small amount of DMSO and then adding a sodium chloride solution for injection, to prepare a 5 mg·mL^-1 compound solution for administration. […] Standard curve range: 1-1000 ng·mL^-1.

[6] = PO, Balb/c mice, read-out: AUC(0-t)
[7] = PO, Balb/c mice, read-out: Cmax
[8] = PO, Balb/c mice, read-out: T1/2 (converted)
[9] = THP-1 cells, PMA, LPS 1 µg/mL 3 h, drug 40 min, Nigericin 10 µM 40 min, IL-1β ELISA, read-out: IC50

T1 sequence (Q12809 whole entry): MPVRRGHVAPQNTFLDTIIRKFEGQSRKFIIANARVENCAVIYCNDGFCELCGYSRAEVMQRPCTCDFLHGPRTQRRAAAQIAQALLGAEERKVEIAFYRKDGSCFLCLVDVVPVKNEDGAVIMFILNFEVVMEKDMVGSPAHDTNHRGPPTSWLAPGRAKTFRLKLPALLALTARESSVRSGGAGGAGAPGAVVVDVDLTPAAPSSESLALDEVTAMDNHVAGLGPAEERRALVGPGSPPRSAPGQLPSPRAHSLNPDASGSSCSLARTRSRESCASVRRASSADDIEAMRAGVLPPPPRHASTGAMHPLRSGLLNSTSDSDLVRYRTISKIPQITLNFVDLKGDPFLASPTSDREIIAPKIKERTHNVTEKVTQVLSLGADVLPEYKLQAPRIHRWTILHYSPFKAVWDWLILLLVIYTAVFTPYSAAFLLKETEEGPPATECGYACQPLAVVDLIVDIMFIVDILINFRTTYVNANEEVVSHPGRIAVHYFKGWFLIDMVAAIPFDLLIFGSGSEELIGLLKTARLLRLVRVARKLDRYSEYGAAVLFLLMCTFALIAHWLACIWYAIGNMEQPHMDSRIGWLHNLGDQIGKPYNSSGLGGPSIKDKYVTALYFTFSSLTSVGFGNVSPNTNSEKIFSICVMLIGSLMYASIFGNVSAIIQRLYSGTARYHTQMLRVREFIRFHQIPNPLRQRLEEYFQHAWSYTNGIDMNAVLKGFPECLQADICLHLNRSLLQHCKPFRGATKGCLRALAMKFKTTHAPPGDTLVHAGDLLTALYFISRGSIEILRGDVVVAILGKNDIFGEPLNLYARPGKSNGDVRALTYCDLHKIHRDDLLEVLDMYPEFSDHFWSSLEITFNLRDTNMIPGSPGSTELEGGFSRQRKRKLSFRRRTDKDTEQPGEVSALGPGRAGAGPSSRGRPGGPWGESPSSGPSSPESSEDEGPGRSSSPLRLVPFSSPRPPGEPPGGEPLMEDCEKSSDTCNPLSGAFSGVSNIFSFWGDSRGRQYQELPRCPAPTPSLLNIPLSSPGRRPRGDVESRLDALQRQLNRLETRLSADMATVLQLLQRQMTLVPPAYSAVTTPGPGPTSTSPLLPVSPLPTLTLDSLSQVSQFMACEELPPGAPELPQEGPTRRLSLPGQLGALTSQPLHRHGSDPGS

For `Cn1c(-c2ccc3sccc3c2O)nnc(N[C@@H]2CCCN(CCO)C2)c1=O` [Compound 9, (R)-3-(4-hydroxybenzo[b]thiophen-5-yl)-6-((1-(2-hydroxyethyl)piperidin-3-yl)amino)-4-methyl-1,2,4-triazin-5(4H)-ketone], the “inhibitory effects on the hERG potassium ion channel (conclusion in words)” value (“inhibitory effects” below) [1] was “Conclusion: compounds 3, 4, 5, 9, 16, 17, 24, 30, 40, 41, 42, 43, 54 and others have weak inhibitory effects on the hERG potassium ion channel, having weaker inhibitory effect than the reference compound Ref-1”, the “72h Survival rate” value (LPS-induced mice) was 70% and the “survival status of mice (mice alive) 12h” value (LPS-induced mice; First cage (5 mice)) was 5. For the same molecule, the “survival status of mice (mice alive) 24h” value (LPS-induced mice; First cage (5 mice)) was 5, the “survival status of mice (mice alive) 36h” value (LPS-induced mice; First cage (5 mice)) was 5 and the “survival status of mice (mice alive) 48h” value (LPS-induced mice; First cage (5 mice)) was 5. For the same molecule, the “survival status of mice (mice alive) 72h” value (LPS-induced mice; First cage (5 mice)) was 3, the “survival status of mice (mice alive) 12h” value (LPS-induced mice; Second cage (5 mice)) was 5 and the “survival status of mice (mice alive) 24h” value (LPS-induced mice; Second cage (5 mice)) was 5. The “survival status of mice (mice alive) 36h” value (LPS-induced mice; Second cage (5 mice)) was 5, the “survival status of mice (mice alive) 48h” value (LPS-induced mice; Second cage (5 mice)) was 5 and the “survival status of mice (mice alive) 72h” value (LPS-induced mice; Second cage (5 mice)) was 4. For the same molecule, the Plasma ([2]; 1 h) was 1830 ng/mL, the Plasma ([2]; 6 h) was 46 ng/mL and the Kp at 1 h ([2]; mouse, brain, po, 10 mg/kg) was 0.04. The Kp at 6 h ([2]; mouse, brain, po, 10 mg/kg) was 0.46, the “20 uM Inhibition ratio” value [3] was 8.83% and the IC50 (NLRP3 inflammasome) was 3.95 nM. For the same molecule, the AUC(0-t) [4, 6] was 4400 ng·h/mL, the Cmax [4, 7] was 2280 ng/mL and the half-life [4, 8] was 0.85 h.

In the case of `CCn1c(-c2ccc3sccc3c2O)nnc(N[C@@H]2C[C@@H](F)CN(C)C2)c1=O` [Compound 43, 4-ethyl-6-(((3R,5R)-5-fluoro-1-methylpiperidin-3-yl)amino)-3-(4-hydroxybenzo[b]thiophen-5-yl)-1,2,4-triazin-5(4H)-ketone], the “inhibitory effects” value [1] is reported as “Conclusion: compounds 3, 4, 5, 9, 16, 17, 24, 30, 40, 41, 42, 43, 54 and others have weak inhibitory effects on the hERG potassium ion channel, having weaker inhibitory effect than the reference compound Ref-1”, the Cerebrospinal fluid ([5]; 0.25h) is reported as 151 ng/g and the Plasma ([5]; 0.25h) is reported as 6797 ng/mL. The Cerebrospinal fluid ([5]; 2h) was 40 ng/g, the Plasma ([5]; 2h) was 1911 ng/mL and the “distribution concentrations in cerebrospinal fluid / brain penetration potential (conclusion in words)” value ([5]; mouse, in vivo) was “Conclusion: some compounds of the present invention have good brain penetration potential, and particularly, compounds 40, 43 and others have high distribution concentrations in cerebrospinal fluid”. The “20 uM Inhibition ratio” value [3] was 14.23%, the IC50 (NLRP3 inflammasome) was 5.66 nM and the AUC(0-t) [4, 6] was 15700 ng·h/mL. It also gave a Cmax [4, 7] of 5070 ng/mL and a half-life [4, 8] of 2.25 h.

With `Cn1c(-c2ccc3sccc3c2O)nnc(N[C@@H]2CCCN(C3CC(F)(F)C3)C2)c1=O` [Compound 5, (R)-6-((1-(3,3-difluorocyclobutyl)piperidin-3-yl)amino)-3-(4-hydroxybenzo[b]thiophen-5-yl)-4-methyl-1,2,4-triazin-5(4H)-ketone] the “inhibitory effects” value ([1]; human) was “Conclusion: compounds 3, 4, 5, 9, 16, 17, 24, 30, 40, 41, 42, 43, 54 and others have weak inhibitory effects on the hERG potassium ion channel, having weaker inhibitory effect than the reference compound Ref-1”, the “20 uM Inhibition ratio” value [3] was 19.97% and the IC50 (NLRP3 inflammasome; [9]) was 3.56 nM.

With `CCN1C[C@H](F)C[C@@H](Nc2nnc(-c3ccc4sccc4c3O)n(C)c2=O)C1` [Compound 41, 6-(((3R,5R)-1-ethyl-5-fluoropiperidin-3-yl)amino)-3-(4-hydroxybenzo[b]thiophen-5-yl)-4-me thyl-1,2,4-triazin-5(4H)-ketone] the “inhibitory effects” value [1] was “Conclusion: compounds 3, 4, 5, 9, 16, 17, 24, 30, 40, 41, 42, 43, 54 and others have weak inhibitory effects on the hERG potassium ion channel, having weaker inhibitory effect than the reference compound Ref-1”, the “72h Survival rate” value (LPS-induced mice) was 100% and the “survival status of mice (mice alive) 12h” value (LPS-induced mice; First cage (5 mice)) was 5. For the same molecule, the “survival status of mice (mice alive) 24h” value (LPS-induced mice; First cage (5 mice)) was 5, the “survival status of mice (mice alive) 36h” value (LPS-induced mice; First cage (5 mice)) was 5 and the “survival status of mice (mice alive) 48h” value (LPS-induced mice; First cage (5 mice)) was 5. For the same molecule, the “survival status of mice (mice alive) 72h” value (LPS-induced mice; First cage (5 mice)) was 5, the “survival status of mice (mice alive) 12h” value (LPS-induced mice; Second cage (5 mice)) was 5 and the “survival status of mice (mice alive) 24h” value (LPS-induced mice; Second cage (5 mice)) was 5. The “survival status of mice (mice alive) 36h” value (LPS-induced mice; Second cage (5 mice)) was 5, the “survival status of mice (mice alive) 48h” value (LPS-induced mice; Second cage (5 mice)) was 5 and the “survival status of mice (mice alive) 72h” value (LPS-induced mice; Second cage (5 mice)) was 5. It also gave a Cerebrospinal fluid ([5]; 0.25h) of 67 ng/g, a Plasma ([5]; 0.25h) of 668 ng/mL and a Cerebrospinal fluid ([5]; 2h) of 1 ng/g. For the same molecule, the Plasma ([5]; 2h) was 38 ng/mL, the “20 uM Inhibition ratio” value [3] was 13.31% and the IC50 (NLRP3 inflammasome) was 2.02 nM.

In the case of `CCN1C[C@H](F)C[C@@H](Nc2nnc(-c3ccc4sccc4c3O)n(CC)c2=O)C1` [Compound 42, 4-ethyl-6-(((3R,5R)-1-ethyl-5-fluoropiperidin-3-yl)amino)-3-(4-hydroxybenzo[b]thiophen-5-y 1)-1,2,4-triazin-5(4H)-ketone], the “inhibitory effects” value ([1]; human) is reported as “Conclusion: compounds 3, 4, 5, 9, 16, 17, 24, 30, 40, 41, 42, 43, 54 and others have weak inhibitory effects on the hERG potassium ion channel, having weaker inhibitory effect than the reference compound Ref-1”, the concentration at 0.25 h ([5]; mouse, cerebrospinal fluid) is reported as 35 ng/g and the concentration at 2 h ([5]; mouse, cerebrospinal fluid) is reported as 1 ng/g. The concentration at 0.25 h ([5]; mouse, plasma) was 965 ng/mL, the concentration at 2 h ([5]; mouse, plasma) was 46 ng/mL and the “20 uM Inhibition ratio” value [3] was 14.98%. For the same molecule, the IC50 (NLRP3 inflammasome; [9]) was 4.76 nM, the AUC(0-t) ([4]; male, Balb/c, po) was 2500 ng·h/mL and the Cmax ([4]; male, Balb/c, po) was 2700 ng/mL. The half-life ([4]; male, Balb/c, po) was 1.61 h.

For `Cn1c(-c2ccc3sccc3c2O)nnc(N[C@@H]2CCCC[C@H]2O)c1=O` [Compound 30, 3-(4-hydroxybenzo[b]thiophen-5-yl)-6-(((1R,2R)-2-hydroxycyclohexyl)amino)-4-methyl-1,2,4-triazin-5(4H)-ketone.], the “inhibitory effects” value ([1]; human) was “Conclusion: compounds 3, 4, 5, 9, 16, 17, 24, 30, 40, 41, 42, 43, 54 and others have weak inhibitory effects on the hERG potassium ion channel, having weaker inhibitory effect than the reference compound Ref-1”, the “20 uM Inhibition ratio” value [3] was 1.70% and the IC50 (NLRP3 inflammasome; [9]) was 1.97 nM. For the same molecule, the AUC(0-t) ([4]; male, Balb/c, po) was 4380 ng·h/mL, the Cmax ([4]; male, Balb/c, po) was 9810 ng/mL and the half-life ([4]; male, Balb/c, po) was 0.19 h.
